This note sets out measurements from patent US11591355B2 (Peloton Therapeutics, Inc., priority 2017, dated 2023).

One assay has as its target T1, Human CD73 (Homo sapiens, UniProt P21589).
T1 construct: purchased R&D Systems; host or cells: CHO cells
T1 sequence (P21589 27-549): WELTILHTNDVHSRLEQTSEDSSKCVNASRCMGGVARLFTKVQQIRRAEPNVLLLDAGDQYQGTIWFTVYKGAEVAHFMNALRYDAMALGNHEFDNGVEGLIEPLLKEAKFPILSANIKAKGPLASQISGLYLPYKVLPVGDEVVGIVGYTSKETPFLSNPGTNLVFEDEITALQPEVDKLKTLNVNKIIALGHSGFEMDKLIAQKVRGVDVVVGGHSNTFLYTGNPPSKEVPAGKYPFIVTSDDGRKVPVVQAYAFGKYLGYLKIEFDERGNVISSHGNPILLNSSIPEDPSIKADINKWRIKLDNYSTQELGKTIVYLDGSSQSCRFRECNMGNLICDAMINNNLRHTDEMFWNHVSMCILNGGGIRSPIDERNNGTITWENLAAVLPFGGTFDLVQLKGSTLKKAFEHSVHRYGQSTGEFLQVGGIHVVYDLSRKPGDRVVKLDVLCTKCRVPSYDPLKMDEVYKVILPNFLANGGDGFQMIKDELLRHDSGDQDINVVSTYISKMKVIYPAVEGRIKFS
The experiment in a line: CD73 Enzyme Assay. In kind it is biochemical. Conditions: 0.25 nM hCD73, 25 μM AMP, kinetic read at 360 nm; read-out: CD73 Enzyme Assay IC50.

Assay [1] addresses T2, CD73 on U138 human neuroglioma cells (Homo sapiens, UniProt P21589).
T2 construct: U138 cells were obtained from ATCC and cultured in DMEM with 10% FBS; host or cells: U138 human neuroglioma cells
T2 sequence (P21589 27-549): T1 sequence (P21589 27-549)
The assay is described as follows: CD73 Cell-Based Assay. The conditions noted are these: U138 cells, AMP substrate, 2 hours at 37° C., inorganic phosphate by malachite green. The method, boiled down:
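Whole U138 cells washed free of phosphate were incubated with 200 μM AMP (mixture concentration before equal-volume addition) plus compound in HEPES-buffered saline, pH 7.4, for 2 h at 37 °C, 5% CO2. Adenosine-forming activity read as inorganic phosphate released into supernatant by malachite green.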

One may read the IC50 as the concentration at which inhibition is half-maximal. As to `N#Cc1nc(N2CC3CCCC3C2)c2ccn([C@@H]3O[C@H](CS(=O)(=O)CP(=O)(O)O)[C@@H](O)[C@H]3O)c2n1` (stereo partly drawn) [Compound 158, [(2S,3S,4R,5R)-5-[4-(3,3a,4,5,6,6a-hexa-hydro-1H-cyclopenta-[c]pyrrol-2-yl)-2-cyano-pyrrolo[2,3-d]-pyrimidin-7-yl]-3,4-dihydroxy-tetrahydro-furan-2-yl]methyl-sulfonylmethylphos-phonic acid], the IC50 (at Human CD73; in assay [1]) was under 10 nM in each case.

In the case of `O=P(O)(O)CS(=O)(=O)C[C@H]1O[C@@H](n2ccc3c(NC4CC5CC5C4)nc(Cl)nc32)[C@H](O)[C@@H]1O` (stereo partly drawn) [Compound 159, [(2S,3S,4R,5R)-5-[4-(3-bicyclo[3.1.0]-hexanylamino)-2-chloro-pyrrolo[2,3-d]-pyrimidin-7-yl]-3,4-dihydroxy-tetrahydro-furan-2-yl]methyl-sulfonylmethylphos-phonic acid], the IC50 (at Human CD73; in assay [1]) was under 10 nM throughout.

Consider `CC(C)OP(=O)(O)CS(=O)(=O)C[C@H]1O[C@@H](n2ccc3c(NC4CCCC4)nc(Cl)nc32)[C@H](O)[C@@H]1O` [Compound 160, [(2S,3S,4R,5R)-5-[2-chloro-4-(cyclo-pentylamino)pyrrolo-[2,3-d]pyrimidin-7-yl]-3,4-dihydroxy-tetrahydrofuran-2-yl]methylsulfonyl-methyl-isopropoxy-phosphinic acid], for which the half-inhibitory concentration (IC50) (on Human CD73; in assay [1]) was 100 to 1000 nM in each case.

For the molecule `CC(C)(C)C(=O)OCOP(=O)(O)CS(=O)(=O)C[C@H]1O[C@@H](n2ccc3c(NC4CCCC4)nc(Cl)nc32)[C@H](O)[C@@H]1O` [Compound 161, [(2S,3S,4R,5R)-5-[2-chloro-4-(cyclopentyl-amino)pyrrolo[2,3-d]-pyrimidin-7-yl]-3,4-dihydroxy-tetrahydro-furan-2-yl]methyl-sulfonylmethyl-(2,2-dimethylpropanoyl-oxymethoxy)phos-phinic acid], the IC50 (at Human CD73; in assay [1]) was under 10 nM throughout.

Take `CC(C)Nc1nc(Cl)nc2c1ccn2[C@@H]1O[C@H](CS(=O)(=O)CP(=O)(O)O)[C@@H](O)[C@H]1O` [Compound 162, [(2S,3S,4R,5R)-5-[2-chloro-4-(isopropyl-amino)pyrrolo[2,3-d]-pyrimidin-7-yl]-3,4-dihydroxy-tetrahydro-furan-2-yl]methyl-sulfonylmethylphos-phonic acid]: the IC50 (at Human CD73; in assay [1]) was 10 to 100 nM in each case.

Take `O=P(O)(O)CS(=O)(=O)C[C@H]1O[C@@H](n2ccc3c(N4CCCC4)nc(Cl)nc32)[C@H](O)[C@@H]1O` [Compound 163, [(2S,3S,4R,5R)-5-(2-chloro-4-pyrrolidin-1-yl-pyrrolo[2,3-d]-pyrimidin-7-yl)-3,4-dihydroxy-tetrahydro-furan-2-yl]methyl-sulfonylmethylphos-phonic acid]: the IC50 (at Human CD73; in assay [1]) was 10 to 100 nM in each case.

As for `O=P(O)(O)CS(=O)(=O)C[C@H]1O[C@@H](n2ccc3c(N4CCC(F)(F)C4)nc(Cl)nc32)[C@H](O)[C@@H]1O` [Compound 164, [(2S,3S,4R,5R)-5-[2-chloro-4-(3,3-difluoro-pyrrolidin-1-yl)-pyrrolo[2,3-d]-pyrimidin-7-yl]-3,4-dihydroxy-tetrahydro-furan-2-yl]methyl-sulfonylmethylphos-phonic acid], the IC50 (on Human CD73; in assay [1]) was under 10 nM in each case.

Take `C[C@@H](Nc1nc(Cl)nc2c1ccn2[C@@H]1O[C@H](CS(=O)(=O)CP(=O)(O)O)[C@@H](O)[C@H]1O)c1ccc(F)cc1` [Compound 167, [(2S,3S,4R,5R)-5-[2-chloro-4-[[(1R)-1-(4-fluorophenyl)ethyl]-amino]pyrrolo[2,3-d]-pyrimidin-7-yl]-3,4-dihydroxy-tetrahydro-furan-2-yl]methyl-sulfonylmethylphos-phonic acid]: the IC50 (at Human CD73; in assay [1]) was under 10 nM in each case.

For the molecule `C[C@@H](Nc1nc(Cl)nc2c1ccn2[C@@H]1O[C@H](CS(=O)(=O)CP(=O)(O)O)[C@@H](O)[C@H]1O)c1ccccc1F` [Compound 168, [(2S,3S,4R,5R)-5-[2-chloro-4-[[(1R)-1-(2-fluorophenyl)ethyl]-amino]pyrrolo[2,3-d]-pyrimidin-7-yl]-3,4-dihydroxy-tetrahydro-furan-2-yl]methyl-sulfonylmethylphos-phonic acid], the IC50 (at Human CD73; in assay [1]) was under 10 nM each time.

As to `Cc1ccc([C@@H](C)Nc2nc(Cl)nc3c2ccn3[C@@H]2O[C@H](CS(=O)(=O)CP(=O)(O)O)[C@@H](O)[C@H]2O)cc1` [Compound 169, [(2S,3S,4R,5R)-5-[2-chloro-4-[[(1R)-1-(p-tolyl)ethyl]amino]-pyrrolo[2,3-d]-pyrimidin-7-yl]-3,4-dihydroxy-tetrahydro-furan-2-yl]methyl-sulfonylmethylphos-phonic acid], the 50% inhibitory concentration (IC50) (on Human CD73; in assay [1]) was under 10 nM each time.

In the case of `Cc1ccc([C@H](C)Nc2nc(Cl)nc3c2ccn3[C@@H]2O[C@H](CS(=O)(=O)CP(=O)(O)O)[C@@H](O)[C@H]2O)cc1` [Compound 170, [(2S,3S,4R,5R)-5-[2-chloro-4-[[(1S)-1-(p-tolyl)ethyl]amino]-pyrrolo[2,3-d]-pyrimidin-7-yl]-3,4-dihydroxy-tetrahydro-furan-2-yl]methyl-sulfonylmethylphos-phonic acid], the IC50 (on Human CD73; in assay [1]) was under 10 nM each time.

On to `O=P(O)(O)CS(=O)(=O)C[C@H]1O[C@@H](n2ccc3c(NC4CCC(F)(F)C4)nc(Cl)nc32)[C@H](O)[C@@H]1O` (stereo partly drawn) [Compound 171, [(2S,3S,4R,5R)-5-[2-chloro-4-[(3,3-difluoro-cyclopentyl)amino]-pyrrolo[2,3-d]-pyrimidin-7-yl]-3,4-dihydroxy-tetrahydro-furan-2-yl]methyl-sulfonylmethylphos-phonic acid], for which the IC50 (on Human CD73; in assay [1]) was under 10 nM in each case.

In the case of `O=P(O)(O)CS(=O)(=O)C[C@H]1O[C@@H](n2ccc3c(NC4CCC4)nc(Cl)nc32)[C@H](O)[C@@H]1O` [Compound 172, [(2S,3S,4R,5R)-5-[2-chloro-4-(cyclobutyl-amino)pyrrolo[2,3-d]-pyrimidin-7-yl]-3,4-dihydroxy-tetrahydro-furan-2-yl]methyl-sulfonylmethylphos-phonic acid], the IC50 (on Human CD73; in assay [1]) was under 10 nM throughout.

For `O=P(O)(O)CS(=O)(=O)C[C@H]1O[C@@H](n2ccc3c(NC4CC(F)(F)C4)nc(Cl)nc32)[C@H](O)[C@@H]1O` [Compound 173, [(2S,3S,4R,5R)-5-[2-chloro-4-[(3,3-difluoro-cyclobutyl)amino]-pyrrolo[2,3-d]-pyrimidin-7-yl]-3,4-dihydroxy-tetrahydro-furan-2-yl]methyl-sulfonylmethylphos-phonic acid], the half-maximal inhibitory concentration (IC50) (at Human CD73; in assay [1]) was under 10 nM throughout.

As for `O=P(O)(O)CS(=O)(=O)C[C@H]1O[C@@H](n2ccc3c(NC4CCCCC4)nc(Cl)nc32)[C@H](O)[C@@H]1O` [Compound 174, [(2S,3S,4R,5R)-5-[2-chloro-4-(cyclohexyl-amino)pyrrolo[2,3-d]-pyrimidin-7-yl]-3,4-dihydroxy-tetrahydro-furan-2-yl]methyl-sulfonylmethylphos-phonic acid], the IC50 (at Human CD73; in assay [1]) was under 10 nM in each case.

Turning to `O=P(O)(O)CS(=O)(=O)C[C@H]1O[C@@H](n2ccc3c(N4CC5CC5C4)nc(Cl)nc32)[C@H](O)[C@@H]1O` (stereo partly drawn) [Compound 175, [(2S,3S,4R,5R)-5-[4-(3-azabicyclo[3.1.0]-hexan-3-yl)-2-chloro-pyrrolo[2,3-d]-pyrimidin-7-yl]-3,4-dihydroxy-tetrahydro-furan-2-yl]methyl-sulfonylmethylphos-phonic acid], the IC50 (on Human CD73; in assay [1]) was 10 to 100 nM in each case.

On to `CCNc1nc(Cl)nc2c1ccn2[C@@H]1O[C@H](CS(=O)(=O)CP(=O)(O)O)[C@@H](O)[C@H]1O` [Compound 176, [(2S,3S,4R,5R)-5-[2-chloro-4-(ethylamino)-pyrrolo[2,3-d]-pyrimidin-7-yl]-3,4-dihydroxy-tetrahydro-furan-2-yl]methyl-sulfonylmethylphos-phonic acid], for which the half-maximal inhibitory concentration (IC50) (at Human CD73; in assay [1]) was 10 to 100 nM throughout.

In the case of `CC(C)N(C)c1nc(Cl)nc2c1ccn2[C@@H]1O[C@H](CS(=O)(=O)CP(=O)(O)O)[C@@H](O)[C@H]1O` [Compound 177, [(2S,3S,4R,5R)-5-[2-chloro-4-[isopropyl-(methyl)amino]-pyrrolo[2,3-d]-pyrimidin-7-yl]-3,4-dihydroxy-tetrahydro-furan-2-yl]methyl-sulfonylmethylphos-phonic acid], the IC50 (on Human CD73; in assay [1]) was under 10 nM in each case.
